Results reported in PubChem BioAssay (NCI).
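All cell lines were grown in 96-well plates and treated with compound for 48 hours. GI50 marks 50% less growth. TGI is the concentration that stops growth completely.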

What was measured:
Assay in all cases: DTP human tumour cell line panel, 48 h
SK-MEL-2 melanoma = test system: SK-MEL-2 melanoma
HS 578T breast = test system: HS 578T breast
SN12C renal = test system: SN12C renal
MCF7 breast = test system: MCF7 breast
MDA-MB-435 = test system: MDA-MB-435
CCRF-CEM leukemia = test system: CCRF-CEM leukemia
HT29 colon = test system: HT29 colon
SF-268 CNS = test system: SF-268 CNS
RXF 393 renal = test system: RXF 393 renal
K-562 leukemia = test system: K-562 leukemia
NCI-H460 lung = test system: NCI-H460 lung
SF-539 CNS = test system: SF-539 CNS
HCT-15 colon = test system: HCT-15 colon
TK-10 renal = test system: TK-10 renal
NCI-H522 lung = test system: NCI-H522 lung
KM12 colon = test system: KM12 colon
HCT-116 colon = test system: HCT-116 colon
SF-295 CNS = test system: SF-295 CNS
NCI/ADR-RES ovarian = test system: NCI/ADR-RES ovarian
COLO 205 colon = test system: COLO 205 colon
SNB-75 CNS = test system: SNB-75 CNS
MALME-3M melanoma = test system: MALME-3M melanoma
UO-31 renal = test system: UO-31 renal
SNB-19 CNS = test system: SNB-19 CNS
SW-620 colon = test system: SW-620 colon
RPMI-8226 leukemia = test system: RPMI-8226 leukemia
OVCAR-8 ovarian = test system: OVCAR-8 ovarian
MOLT-4 leukemia = test system: MOLT-4 leukemia
HOP-92 NSCLC = test system: HOP-92 NSCLC
HL-60(TB) leukemia = test system: HL-60(TB) leukemia
OVCAR-5 ovarian = test system: OVCAR-5 ovarian
UACC-257 melanoma = test system: UACC-257 melanoma
OVCAR-3 ovarian = test system: OVCAR-3 ovarian
EKVX NSCLC = test system: EKVX NSCLC
A498 renal = test system: A498 renal
CAKI-1 renal = test system: CAKI-1 renal
A549 NSCLC = test system: A549 NSCLC
U251 CNS = test system: U251 CNS
SR leukemia = test system: SR leukemia
IGROV1 ovarian = test system: IGROV1 ovarian
786-0 renal = test system: 786-0 renal
SK-MEL-28 melanoma = test system: SK-MEL-28 melanoma
PC-3 prostate = test system: PC-3 prostate
HOP-62 NSCLC = test system: HOP-62 NSCLC
HCC-2998 colon = test system: HCC-2998 colon
SK-MEL-5 melanoma = test system: SK-MEL-5 melanoma
M14 melanoma = test system: M14 melanoma
BT-549 breast = test system: BT-549 breast
OVCAR-4 ovarian = test system: OVCAR-4 ovarian
NCI-H226 lung = test system: NCI-H226 lung
SK-OV-3 ovarian = test system: SK-OV-3 ovarian
ACHN renal = test system: ACHN renal
DU-145 prostate = test system: DU-145 prostate

For `Cc1ccc2c(n1)C(=O)C(Cl)=C(Nc1cccc(C)c1C)C2=O`, the GI50 (SK-MEL-2 melanoma) was 1910 nM, the TGI (SK-MEL-2 melanoma) was 3840 nM and the GI50 (HS 578T breast) was 2210 nM. The TGI (HS 578T breast) was 6230 nM, the GI50 (SN12C renal) was 1670 nM and the TGI (SN12C renal) was 4350 nM. It also gave a GI50 (MCF7 breast) of 1160 nM, a TGI (MCF7 breast) of 2950 nM and a GI50 (MDA-MB-435) of 1890 nM. It also gave a TGI (MDA-MB-435) of 3720 nM, a GI50 (CCRF-CEM leukemia) of 1250 nM and a TGI (CCRF-CEM leukemia) of 5220 nM. It also gave a GI50 (HT29 colon) of 2680 nM, a TGI (HT29 colon) of 7160 nM and a GI50 (SF-268 CNS) of 1610 nM. It also gave a TGI (SF-268 CNS) of 3480 nM, a GI50 (RXF 393 renal) of 1520 nM and a TGI (RXF 393 renal) of 2880 nM. For the same compound, the GI50 (K-562 leukemia) was 770 nM, the TGI (K-562 leukemia) was 3580 nM and the GI50 (NCI-H460 lung) was 2250 nM. It also gave a TGI (NCI-H460 lung) of 5620 nM, a GI50 (SF-539 CNS) of 1670 nM and a TGI (SF-539 CNS) of 3160 nM. For the same compound, the GI50 (HCT-15 colon) was 1130 nM, the TGI (HCT-15 colon) was 2730 nM and the GI50 (TK-10 renal) was 2470 nM. The TGI (TK-10 renal) was 4200 nM, the GI50 (NCI-H522 lung) was 1960 nM and the TGI (NCI-H522 lung) was 4580 nM. It also gave a GI50 (KM12 colon) of 1950 nM, a TGI (KM12 colon) of 4540 nM and a GI50 (HCT-116 colon) of 871 nM. For the same compound, the TGI (HCT-116 colon) was 2600 nM, the GI50 (SF-295 CNS) was 1840 nM and the TGI (SF-295 CNS) was 3390 nM. For the same compound, the GI50 (NCI/ADR-RES ovarian) was 1920 nM, the TGI (NCI/ADR-RES ovarian) was 6600 nM and the GI50 (COLO 205 colon) was 2030 nM. For the same compound, the TGI (COLO 205 colon) was 4720 nM, the GI50 (SNB-75 CNS) was 1460 nM and the TGI (SNB-75 CNS) was 2920 nM. For the same compound, the GI50 (MALME-3M melanoma) was 1830 nM, the TGI (MALME-3M melanoma) was 3300 nM and the GI50 (UO-31 renal) was 1460 nM. For the same compound, the TGI (UO-31 renal) was 2950 nM, the GI50 (SNB-19 CNS) was 1920 nM and the TGI (SNB-19 CNS) was 5080 nM. For the same compound, the GI50 (SW-620 colon) was 2060 nM, the TGI (SW-620 colon) was 4820 nM and the GI50 (RPMI-8226 leukemia) was 1350 nM. It also gave a TGI (RPMI-8226 leukemia) of 4120 nM, a GI50 (OVCAR-8 ovarian) of 2020 nM and a TGI (OVCAR-8 ovarian) of 7410 nM. It also gave a GI50 (MOLT-4 leukemia) of 827 nM, a TGI (MOLT-4 leukemia) of 3350 nM and a GI50 (HOP-92 NSCLC) of 1980 nM. For the same compound, the TGI (HOP-92 NSCLC) was 3950 nM, the GI50 (HL-60(TB) leukemia) was 1150 nM and the TGI (HL-60(TB) leukemia) was 3490 nM. For the same compound, the GI50 (OVCAR-5 ovarian) was 2010 nM, the TGI (OVCAR-5 ovarian) was 3930 nM and the GI50 (UACC-257 melanoma) was 1440 nM. For the same compound, the TGI (UACC-257 melanoma) was 2800 nM, the GI50 (OVCAR-3 ovarian) was 372 nM and the TGI (OVCAR-3 ovarian) was 1400 nM. For the same compound, the GI50 (EKVX NSCLC) was 1580 nM, the TGI (EKVX NSCLC) was 3730 nM and the GI50 (A498 renal) was 2230 nM. For the same compound, the TGI (A498 renal) was 5190 nM, the GI50 (CAKI-1 renal) was 1570 nM and the TGI (CAKI-1 renal) was 3120 nM. It also gave a GI50 (A549 NSCLC) of 2150 nM, a TGI (A549 NSCLC) of 5000 nM and a GI50 (U251 CNS) of 1550 nM. It also gave a TGI (U251 CNS) of 3080 nM, a GI50 (SR leukemia) of 600 nM and a TGI (SR leukemia) of 3210 nM. It also gave a GI50 (IGROV1 ovarian) of 1680 nM, a TGI (IGROV1 ovarian) of 3720 nM and a GI50 (786-0 renal) of 1900 nM. For the same compound, the TGI (786-0 renal) was 4080 nM, the GI50 (SK-MEL-28 melanoma) was 1930 nM and the TGI (SK-MEL-28 melanoma) was 3700 nM. It also gave a GI50 (PC-3 prostate) of 1430 nM, a TGI (PC-3 prostate) of 3480 nM and a GI50 (HOP-62 NSCLC) of 1550 nM. It also gave a TGI (HOP-62 NSCLC) of 2960 nM, a GI50 (HCC-2998 colon) of 1920 nM and a TGI (HCC-2998 colon) of 3770 nM. It also gave a GI50 (SK-MEL-5 melanoma) of 1620 nM, a TGI (SK-MEL-5 melanoma) of 3020 nM and a GI50 (M14 melanoma) of 1610 nM. For the same compound, the TGI (M14 melanoma) was 3190 nM, the GI50 (BT-549 breast) was 1580 nM and the TGI (BT-549 breast) was 3040 nM. The GI50 (OVCAR-4 ovarian) was 1140 nM, the TGI (OVCAR-4 ovarian) was 2420 nM and the GI50 (NCI-H226 lung) was 1940 nM. For the same compound, the TGI (NCI-H226 lung) was 4390 nM, the GI50 (SK-OV-3 ovarian) was 1590 nM and the TGI (SK-OV-3 ovarian) was 3640 nM. It also gave a GI50 (ACHN renal) of 1620 nM, a TGI (ACHN renal) of 3190 nM and a GI50 (DU-145 prostate) of 1650 nM. For the same compound, the TGI (DU-145 prostate) was 3200 nM.
